Measured values reported in PMC5645246 (Anesthesiology, 2017).
Where “and” joins values, the source holds several entries; their conditions need not be identical. Equal entries are not always repeated. Entries after “also recorded” stand apart in the source; their conditions may differ. Where two headings read alike, the source gives them in different places.

Columns and labels:
α1β3γ2L GABAA receptors [1] = biological target: T1, α1β3γ2L GABAA receptors (Homo sapiens, UniProt P14867+P18507+P28472); assay type: cell-based; conditions: for EC5 GABA-evoked currents in the presence of drug, as % of those evoked by 1 mM GABA: 300 μM drug, mean ± SD; for maximum peak current amplitude at high drug concentrations, relative to that produced by 1 mM GABA: EC5 GABA; for maximum peak current amplitude at high drug concentrations, relative to that produced by 1 mM GABA / slope of potentiation concentration-response curve: fit to equation 1
T1 sequence (P14867 28-456): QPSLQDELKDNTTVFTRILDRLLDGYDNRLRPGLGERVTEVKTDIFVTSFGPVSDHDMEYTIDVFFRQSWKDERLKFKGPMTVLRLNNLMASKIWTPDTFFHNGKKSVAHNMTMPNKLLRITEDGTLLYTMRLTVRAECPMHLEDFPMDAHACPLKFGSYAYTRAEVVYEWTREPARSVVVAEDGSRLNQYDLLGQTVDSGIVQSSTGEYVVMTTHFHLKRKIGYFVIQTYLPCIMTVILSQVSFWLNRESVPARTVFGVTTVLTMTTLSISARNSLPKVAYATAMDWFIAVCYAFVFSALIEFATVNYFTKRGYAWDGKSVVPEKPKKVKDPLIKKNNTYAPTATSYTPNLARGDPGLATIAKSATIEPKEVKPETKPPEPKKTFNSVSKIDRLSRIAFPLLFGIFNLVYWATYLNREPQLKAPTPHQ
T1 sequence (P28472 26-473): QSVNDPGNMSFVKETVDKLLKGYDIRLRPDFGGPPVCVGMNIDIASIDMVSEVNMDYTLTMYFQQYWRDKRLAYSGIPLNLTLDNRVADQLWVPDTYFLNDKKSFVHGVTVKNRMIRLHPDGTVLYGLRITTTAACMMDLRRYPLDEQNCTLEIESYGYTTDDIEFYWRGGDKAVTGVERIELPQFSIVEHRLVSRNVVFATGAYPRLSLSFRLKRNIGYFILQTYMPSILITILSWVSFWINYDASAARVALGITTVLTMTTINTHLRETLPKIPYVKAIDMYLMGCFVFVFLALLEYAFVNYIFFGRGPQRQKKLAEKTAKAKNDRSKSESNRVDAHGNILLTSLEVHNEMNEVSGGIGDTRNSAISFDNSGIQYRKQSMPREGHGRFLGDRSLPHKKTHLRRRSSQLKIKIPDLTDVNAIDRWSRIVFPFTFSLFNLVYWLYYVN
T1 sequence (P18507 40-475): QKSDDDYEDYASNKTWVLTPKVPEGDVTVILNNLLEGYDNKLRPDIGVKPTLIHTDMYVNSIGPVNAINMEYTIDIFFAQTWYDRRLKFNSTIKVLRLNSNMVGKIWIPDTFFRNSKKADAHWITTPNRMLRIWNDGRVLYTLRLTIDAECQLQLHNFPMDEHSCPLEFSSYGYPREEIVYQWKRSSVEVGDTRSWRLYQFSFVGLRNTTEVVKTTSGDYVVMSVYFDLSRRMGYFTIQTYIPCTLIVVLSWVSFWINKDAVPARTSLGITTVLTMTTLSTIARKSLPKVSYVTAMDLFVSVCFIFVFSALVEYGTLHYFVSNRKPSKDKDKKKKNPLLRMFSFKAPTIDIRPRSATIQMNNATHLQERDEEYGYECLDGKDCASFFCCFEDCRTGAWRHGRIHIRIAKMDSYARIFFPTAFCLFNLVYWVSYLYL

α1β3γ2L GABAA receptors [2] = biological target: T1, α1β3γ2L GABAA receptors; assay type: cell-based
α1β3γ2L GABAA receptors [3] = biological target: T1, α1β3γ2L GABAA receptors; assay type: cell-based; remark: listed apart in the source
[4] = biological target: α1β3γ2L GABAA receptor open and closed states (Homo sapiens, UniProt P14867+P18507+P28472); assay: Allosteric modeling of direct activation data; assay type: cell-based
Sequence of α1β3γ2L GABAA receptor open and closed states (P14867 28-456): as the sequence (P14867 28-456) above
Sequence of α1β3γ2L GABAA receptor open and closed states (P28472 26-473): as the sequence (P28472 26-473) above
Sequence of α1β3γ2L GABAA receptor open and closed states (P18507 40-475): as the sequence (P18507 40-475) above

Aqueous saturation = assay type: physicochemical; conditions: aqueous buffer
[5] = biological target: α1β3γ2L GABAA receptors (α+−β− and γ+−β− transmembrane anesthetic sites) (Homo sapiens, UniProt P14867+P18507+P28472); assay: Inhibition of receptor photoaffinity labeling by R-[3H]mTFD-MPAB; conditions: for slope for inhibition of R-[3H]mTFD-MPAB photoincorporation: fit to equation 2
Sequence of α1β3γ2L GABAA receptors (α+−β− and γ+−β− transmembrane anesthetic sites) (P14867 28-456): as the sequence (P14867 28-456) above
Sequence of α1β3γ2L GABAA receptors (α+−β− and γ+−β− transmembrane anesthetic sites) (P28472 26-473): as the sequence (P28472 26-473) above
Sequence of α1β3γ2L GABAA receptors (α+−β− and γ+−β− transmembrane anesthetic sites) (P18507 40-475): as the sequence (P18507 40-475) above

[6] = biological target: α1β3γ2L GABAA receptors (β+−α− transmembrane anesthetic sites) (Homo sapiens, UniProt P14867+P18507+P28472); assay: Inhibition of receptor photoaffinity labeling by [3H]azi-etomidate; conditions: for slope for inhibition of [3H]azi-etomidate photoincorporation: fit to equation 2
Sequence of α1β3γ2L GABAA receptors (β+−α− transmembrane anesthetic sites) (P14867 28-456): as the sequence (P14867 28-456) above
Sequence of α1β3γ2L GABAA receptors (β+−α− transmembrane anesthetic sites) (P28472 26-473): as the sequence (P28472 26-473) above
Sequence of α1β3γ2L GABAA receptors (β+−α− transmembrane anesthetic sites) (P18507 40-475): as the sequence (P18507 40-475) above

α1β3γ2L GABAA receptors [7] = biological target: T1, α1β3γ2L GABAA receptors; conditions: 300 μM naphthalene-etomidate; for Percent change in peak current amplitude, GABA EC5 + Etomidate: etomidate 3 μM; for Percent change in peak current amplitude, GABA EC5 + Pentobarbital: pentobarbital 120 μM; for Percent change in peak current amplitude, GABA EC5 + Propofol: propofol 10 μM
[8] = test system: GABAA receptor transmembrane anesthetic binding sites; conditions: photolabel protection studies; cited from earlier work
[9] = EC5 GABA + 10 μM propofol, fit to equation 2
[10] = listed as Naphthalene-etomidate
[11] = GABA Pre-exposure, mean ± SD, n = 6
[12] = Naphthalene-etomidate Pre-exposure (10 s), mean ± SD, n = 6
[13] = Simultaneous Addition, mean ± SD, n = 6
[14] = absence of naphthalene-etomidate
[15] = presence of 300 μM naphthalene-etomidate

CCOC(=O)c1cncn1C(C)c1cccc2ccccc12 (stereo not shown) [naphthalene-etomidate]
EC5 GABA-evoked currents in the presence of drug, as % of those evoked by 1 mM GABA (α1β3γ2L GABAA receptors [1]): 11 ± 2.7% and 11% | maximum peak current amplitude at high drug concentrations, relative to that produced by 1 mM GABA (α1β3γ2L GABAA receptors [1]): 11% | slope of potentiation concentration-response curve (α1β3γ2L GABAA receptors [1]): 3 | directly activated currents compared with those activated by etomidate (α1β3γ2L GABAA receptors [2]; same oocyte, no GABA): orders of magnitude smaller | fold increase in EC50 for propofol potentiation of EC5 GABA-evoked currents (α1β3γ2L GABAA receptors [3]; 300 μM naphthalene-etomidate): 6 fold | minimum normalized peak current at high naphthalene-etomidate concentrations (α1β3γ2L GABAA receptors [3]; [9]): 24% | slope for inhibition of propofol-potentiated currents (α1β3γ2L GABAA receptors [3]; [9]): −3.9 | fold lower affinity for the open state of the receptor versus etomidate ([4]; comparison of dissociation constants): 27 fold | fold higher affinity for the open state than the closed state ([4]; from Kdopen and Kdclosed): 4.4 fold | near aqueous-saturating concentration (Aqueous saturation): ~300 µM | slope for inhibition of R-[3H]mTFD-MPAB photoincorporation [5]: −1.3 | slope for inhibition of R-[3H]mTFD-MPAB photoincorporation [5, 10]: −2.0 | inhibition of specific R-[3H]mTFD-MPAB photoincorporation ([5]; highest concentrations studied): ≥ 90% | slope for inhibition of [3H]azi-etomidate photoincorporation [6]: −2.0 | slope for inhibition of [3H]azi-etomidate photoincorporation [6, 10]: −1.2 | inhibition of specific [3H]azi-etomidate photoincorporation ([6]; highest concentrations studied): ≥ 90% | fold greater reduction in currents potentiated by propofol compared to currents potentiated by etomidate or pentobarbital (α1β3γ2L GABAA receptors [7]): approximately 2 fold | Percent change in peak current amplitude, GABA EC5 + Diazepam (α1β3γ2L GABAA receptors [7]; GABA Pre-exposure, diazepam 1 μM, mean ± SD, n = 6): 33 ± 6.9% | Percent change in peak current amplitude, GABA EC5 + Etomidate (α1β3γ2L GABAA receptors [7]; [11]): −24 ± 1.8% | Percent change in peak current amplitude, GABA EC50 (α1β3γ2L GABAA receptors [7]; [11]): 21 ± 9% | Percent change in peak current amplitude, GABA EC5 + Pentobarbital (α1β3γ2L GABAA receptors [7]; [11]): −21 ± 5.4% | Percent change in peak current amplitude, GABA EC5 + Propofol (α1β3γ2L GABAA receptors [7]; [11]): −49 ± 4.69% | Percent change in peak current amplitude, GABA EC5 + Etomidate (α1β3γ2L GABAA receptors [7]; [12]): −47 ± 4.1% | Percent change in peak current amplitude, GABA EC50 (α1β3γ2L GABAA receptors [7]; [12]): −8.8 ± 8.6% | Percent change in peak current amplitude, GABA EC5 + Pentobarbital (α1β3γ2L GABAA receptors [7]; [12]): −45 ± 7.9% | Percent change in peak current amplitude, GABA EC5 + Propofol (α1β3γ2L GABAA receptors [7]; [12]): −68 ±6.0% | Percent change in peak current amplitude, GABA EC5 + Etomidate (α1β3γ2L GABAA receptors [7]; [13]): −33 ± 7.8% | Percent change in peak current amplitude, GABA EC50 (α1β3γ2L GABAA receptors [7]; Simultaneous Addition, mean ± SD, n = 6 oocytes): 7.3 ± 8.8% | Percent change in peak current amplitude, GABA EC5 + Pentobarbital (α1β3γ2L GABAA receptors [7]; [13]): −33 ± 7.1% | Percent change in peak current amplitude, GABA EC5 + Propofol (α1β3γ2L GABAA receptors [7]; [13]): −63 ± 7.3%

CC(C)c1cccc(C(C)C)c1O [propofol]
peak current amplitude (normalized to 1 mM GABA) produced with EC5 GABA (α1β3γ2L GABAA receptors [3]; 10 μM propofol, absence of naphthalene-etomidate): 61% | EC50 (α1β3γ2L GABAA receptors [3]; EC50 for propofol potentiation of EC5 GABA-evoked currents, absence of naphthalene-etomidate, minimum constrained to 5%): 6 µM | maximal peak current response at high propofol concentrations (α1β3γ2L GABAA receptors [3]; [14]): 88% | slope of propofol potentiation curve (α1β3γ2L GABAA receptors [3]; [14]): 1.5 | maximal peak current response at high propofol concentrations (α1β3γ2L GABAA receptors [3]; [15]): 87% | slope of propofol potentiation curve (α1β3γ2L GABAA receptors [3]; [15]): 1.0 | binding selectivity for β+–α− sites as compared to α+–β−/γ+–β− sites [8]: essentially no selectivity at all; also recorded: virtually no binding site selectivity

CCCC(C)C1(CC)C(=O)NC(=O)NC1=O (stereo not shown) [pentobarbital]
binding selectivity for β+–α− sites as compared to α+–β−/γ+–β− sites [8]: reverse selectivity

CCOC(=O)c1cncn1[C@H](C)c1ccccc1 [etomidate, reference compound]
fold potentiation of EC5 GABA-evoked current (α1β3γ2L GABAA receptors [1]; 100 μM drug, representative traces, single oocyte): 14 fold | EC5 GABA-evoked currents in the presence of drug, as % of those evoked by 1 mM GABA (α1β3γ2L GABAA receptors [1]): 90 ± 7% | maximum peak current amplitude at high drug concentrations, relative to that produced by 1 mM GABA (α1β3γ2L GABAA receptors [1]): 95% | slope of potentiation concentration-response curve (α1β3γ2L GABAA receptors [1]): 1.2 | slope of direct activation concentration-response curve (α1β3γ2L GABAA receptors [2]; fit to equation 1): 1.2
